The values below come from patent US20250129103A1, “METHODS FOR TREATMENT OF CANCER” (Frontier Medicines Corporation, priority 2022, published 2025).

The target of series [1] is KRAS G12C (GMPPNP-loaded) and cRAF (Ras-binding domain) interaction (Homo sapiens (Human), UniProt P01116, C118S/C51S/C80L/G12C). In words: Inhibition of KRAS G12C and cRAF binding (AlphaScreen). To be noted: KRAS G12C loaded with GMPPNP, cRaf RBD, 2 hours preincubation; read-out: Raf-1 RBD K-Ras IC50. In outline: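 GMPPNP-loaded KRAS G12C in 25 mM Hepes pH 7.4, 150 mM NaCl, 5 mM MgCl2, 0.01% Triton X-100, 10 μM GMPPNP, 2% DMSO, preincubated with compound 2 h at room temperature. cRAF RBD plus AlphaScreen beads then added for 60-90 min; signal read at 570 nm.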
Chain of KRAS G12C (GMPPNP-loaded) and cRAF (Ras-binding domain) interaction (P01116 other isoform, or with tags, fused parts or gaps G12C/C51S/C80L/C118S): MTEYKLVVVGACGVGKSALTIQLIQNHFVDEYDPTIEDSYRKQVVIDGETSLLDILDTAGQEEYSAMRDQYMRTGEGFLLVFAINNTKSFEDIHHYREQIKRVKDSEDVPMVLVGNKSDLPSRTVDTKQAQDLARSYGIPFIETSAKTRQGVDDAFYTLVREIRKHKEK
A general note: Bead proximity is the source of the signal in Alpha formats.

Series [2] concerns the target KRAS G12C (GMPPNP-loaded) and PI3Ka (Ras-binding domain) interaction (Homo sapiens (Human), UniProt P01116, C118S/C51S/C80L/G12C). In words: Inhibition of KRAS G12C and PI3Ka binding (AlphaScreen). The following applies: KRAS G12C loaded with GMPPNP, PI3Ka RBD, 2 hours preincubation; read-out: PI3K RBD K-Ras IC50. In outline: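 Biotin-AviTag Cys-light KRAS G12C (aa 1-169, C51S/C80L/C118S), GMPPNP-loaded, 1.5 nM, preincubated 2 h with compound, then His-tagged PI3Ka RBD (aa 157-300, 100 nM) plus AlphaScreen beads added for 60-90 min, RT. Buffer Hepes pH 7.4, 10 μM GMPPNP, 2% DMSO; 10-point 1:3 from 50 μM; 4-parameter IC50.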

The nature of series [3]: Determination of kinetic solubility (pH 7.4). To be noted: phosphate buffer, pH 7.4, aqueous buffer, kinetic from dmso stock, 50 mM phosphate buffer pH 7.4, read-out: Ksol, pH 7.4. Type of series: physicochemical. In outline: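 Sample mixed with 50 mM phosphate buffer, pH 7.4, vortexed, then shaken 2 h at room temperature and centrifuged. Filtrate analysed by HPLC-UV and LC-MS/MS, with solubility read from peak areas against a standard calibration curve.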

The nature of series [4]: Determination of logD (1-octanol / phosphate buffer pH 7.4). To be noted: 1-octanol/phosphate buffer, pH 7.4, pH 7.4, 1-octanol/phosphate buffer; read-out: Log D, pH 7.4. The class given is physicochemical. In outline: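 Shake-flask partition between 1-octanol and 100 mM phosphate buffer pH 7.4, each phase presaturated with the other overnight. Tubes shaken 1 h at 800 rpm, room temperature, then centrifuged. Both phases quantified by LCMS and logD calculated from the ratio.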

Converted amounts (≈) assume the structure as drawn.

Chain of KRAS G12C (GMPPNP-loaded) and PI3Ka (Ras-binding domain) interaction (P01116 other isoform, or with tags, fused parts or gaps G12C/C51S/C80L/C118S): as above

Take `N#CC[C@H]1CN(c2nc(OC[C@@]34CCCN3C[C@H](F)C4)nc3c(F)c(-c4cccc5cccc(Cl)c45)ncc23)CCN1C(=O)/C=C/CN1CCOCC1` [Compound 48]: the 50% inhibitory concentration (IC50) in series [1] and in series [2] was 10 to 100 nM each time. Moreover, the solubility kinetic at 2 h in series [3] turned out to be 110 µg/mL (≈ 148 µM). The logD in series [4] was determined as 2.71.
Consider `N#CC[C@H]1CN(c2nc(OC[C@@]34CCCN3C[C@H](F)C4)nc3c2CCN(c2cccc4cccc(Cl)c24)C3)CCN1C(=O)/C=C/CN1CCOCC1` [Compound 49], for which the IC50 in series [1] and in series [2] was < 10 nM in each case. In series [3], the solubility kinetic at 2 h amounted to 45.2 µg/mL (≈ 62 µM). Also, the logD in series [4] was 3.72.
In the case of `N#CC[C@H]1CN(c2nc(OCC34CCCN3CCC4)nc3c2CCN(c2cccc4ccc(F)c(Cl)c24)C3)CCN1C(=O)/C=C/CN1CCOCC1` [Compound 50], the IC50 in series [1] and in series [2] was < 10 nM each time. Further, the solubility kinetic at 2 h in series [3] was 124 µg/mL (≈ 171 µM). Besides, in series [4], the logD was 2.27.
With `N#CC[C@H]1CN(c2nc(OC[C@@]34CCCN3C[C@H](F)C4)nc3c2CCN(c2cccc4ccc(F)c(Cl)c24)C3)CCN1C(=O)/C=C/CN1CCOCC1` [Compound 52], the IC50 in series [1] and in series [2] was < 10 nM throughout. Further, the solubility kinetic at 2 h in series [3] was determined as 23.8 µg/mL (≈ 31.8 µM). The logD in series [4] came to 3.8.
For `N#CC[C@H]1CN(c2nc(OC[C@@]34CCCN3C[C@H](F)C4)nc3c(F)c(-c4cccc5ccc(F)c(Cl)c45)ncc23)CCN1C(=O)/C=C/CN1CCOCC1` [Compound 53], the IC50 in series [1] and in series [2] was < 10 nM throughout. The solubility kinetic at 2 h in series [3] came out at 111 µg/mL (≈ 146 µM). Further, the logD in series [4] was determined as 2.82.
For `CN1CCC1/C=C/C(=O)N1CCN(c2nc(OC[C@@]34CCCN3C[C@H](F)C4)nc3c(F)c(-c4cccc5ccc(F)c(Cl)c45)ncc23)C[C@@H]1CC#N` (stereo partly shown) [Compound 54], the 50% inhibitory concentration (IC50) in series [1] and in series [2] was < 10 nM each time. Besides, the solubility kinetic at 2 h in series [3] came out at 135 µg/mL (≈ 185 µM). The logD in series [4] was 2.59.
For `Cc1cc(N)nc(-c2ncc3c(N4CCN(C(=O)/C=C/CN5CCOCC5)[C@@H](CC#N)C4)nc(OC[C@@]45CCCN4C[C@H](F)C5)nc3c2F)c1C(F)(F)F` [Compound 55], the IC50 in series [1] and in series [2] was 10 to 100 nM throughout. Also, the solubility kinetic at 2 h in series [3] amounted to 128 µg/mL (≈ 169 µM). The logD in series [4] was found to be 1.53.
Turning to `CCO[C@H]1CCN(C/C=C/C(=O)N2CCN(c3nc(OC[C@@]45CCCN4C[C@H](F)C5)nc4c(F)c(-c5cccc6cccc(Cl)c56)ncc34)C[C@@H]2CC#N)C1` [Compound 91, 2-((S)-4-(7-(8-chloronaphthalen-1-yl)-8-fluoro-2-(((2R,7aS)-2-fluorohexahydro-1H-pyrrolizin-7a-yl)methoxy)pyrido[4,3-d]pyrimidin-4-yl)-1-((E)-4-((S)-3-ethoxypyrrolidin-1-yl)but-2-enoyl)piperazin-2-yl)acetonitrile], the IC50 in series [1] and in series [2] was < 10 nM in each case. In addition, in series [3], the solubility kinetic at 2 h stood at 110 µg/mL (≈ 143 µM). Also, the logD in series [4] was 1.83.
On to `CCO[C@@H]1CCN(C/C=C/C(=O)N2CCN(c3nc(OC[C@@]45CCCN4C[C@H](F)C5)nc4c(F)c(-c5cccc6cccc(Cl)c56)ncc34)C[C@@H]2CC#N)C1` [Compound 92, 2-((S)-4-(7-(8-chloronaphthalen-1-yl)-8-fluoro-2-(((2R,7aS)-2-fluorohexahydro-1H-pyrrolizin-7a-yl)methoxy)pyrido[4,3-d]pyrimidin-4-yl)-1-((E)-4-((R)-3-ethoxypyrrolidin-1-yl)but-2-enoyl)piperazin-2-yl)acetonitrile], for which the IC50 in series [1] and in series [2] was < 10 nM each time. Besides, the solubility kinetic at 2 h in series [3] was 104 µg/mL (≈ 135 µM). Also, the logD in series [4] amounted to 3.35.
As to `N#CC[C@H]1CN(c2nc(OC[C@@]34CCCN3C[C@H](F)C4)nc3c(F)c(-c4cccc5ccc(F)c(F)c45)ncc23)CCN1C(=O)/C=C/CN1[C@@H]2CC[C@H]1COC2` [Compound 93, 2-((S)-1-((E)-4-((1R,5S)-3-oxa-8-azabicyclo[3.2.1]octan-8-yl)but-2-enoyl)-4-(7-(7,8-difluoronaphthalen-1-yl)-8-fluoro-2-(((2R,7aS)-2-fluorotetrahydro-1H-pyrrolizin-7a(5H)-yl)methoxy)pyrido[4,3-d]pyrimidin-4-yl)piperazin-2-yl)acetonitrile], the concentration for half-maximal inhibition (IC50) in series [1] and in series [2] was < 10 nM in each case. For the same compound, the solubility kinetic at 2 h in series [3] amounted to 72.4 µg/mL (≈ 94 µM). Besides, in series [4], the logD amounted to 3.07.
On to `N#CC[C@H]1CN(c2nc(OC[C@@]34CCCN3C[C@H](F)C4)nc3c(F)c(-c4cccc5cccc(F)c45)ncc23)CCN1C(=O)/C=C/CN1[C@@H]2CC[C@H]1COC2` [Compound 94, 2-((S)-1-((E)-4-((1R,5S)-3-oxa-8-azabicyclo[3.2.1]octan-8-yl)but-2-enoyl)-4-(8-fluoro-7-(8-fluoronaphthalen-1-yl)-2-(((2R,7aS)-2-fluorotetrahydro-1H-pyrrolizin-7a(5H)-yl)methoxy)pyrido[4,3-d]pyrimidin-4-yl)piperazin-2-yl)acetonitrile], for which the IC50 in series [1] and in series [2] was < 10 nM in each case. In addition, in series [3], the solubility kinetic at 2 h is 90.2 µg/mL (≈ 120 µM). Moreover, the logD in series [4] was 3.11.
Regarding `N#CC[C@H]1CN(c2nc(OC[C@@]34CCCN3C[C@H](F)C4)nc3c(F)c(-c4cccc5cccc(Cl)c45)ncc23)CCN1C(=O)/C=C/CN1CC[C@H](F)C1` [Compound 95, 2-((S)-4-(7-(8-chloronaphthalen-1-yl)-8-fluoro-2-(((2R,7aS)-2-fluorohexahydro-1H-pyrrolizin-7a-yl)methoxy)pyrido[4,3-d]pyrimidin-4-yl)-1-((E)-4-((S)-3-fluoropyrrolidin-1-yl)but-2-enoyl)piperazin-2-yl)acetonitrile], the half-maximal inhibitory concentration (IC50) in series [1] and in series [2] was < 10 nM throughout. Moreover, in series [3], the solubility kinetic at 2 h was 73.6 µg/mL (≈ 98.7 µM). In addition, the logD in series [4] is 1.63.
In the case of `N#CC[C@H]1CN(c2nc(OC[C@@]34CCCN3C[C@H](F)C4)nc3c(F)c(-c4cccc5cccc(Cl)c45)ncc23)CCN1C(=O)/C=C/CN1CC[C@@H](F)C1` [Compound 96, 2-((S)-4-(7-(8-chloronaphthalen-1-yl)-8-fluoro-2-(((2R,7aS)-2-fluorohexahydro-1H-pyrrolizin-7a-yl)methoxy)pyrido[4,3-d]pyrimidin-4-yl)-1-((E)-4-((R)-3-fluoropyrrolidin-1-yl)but-2-enoyl)piperazin-2-yl)acetonitrile], the IC50 in series [1] and in series [2] was < 10 nM each time. In addition, the solubility kinetic at 2 h in series [3] was 64.4 µg/mL (≈ 86.5 µM). Moreover, in series [4], the logD was 2.82.
For the compound `C#Cc1c(F)ccc2cccc(-c3ncc4c(N5CCN(C(=O)/C=C/c6cc(C)nc(C)n6)[C@@H](CC#N)C5)nc(OC[C@@]56CCCN5C[C@H](F)C6)nc4c3F)c12` [Compound 101, 2-((S)-1-((E)-3-(2,6-dimethylpyrimidin-4-yl)acryloyl)-4-(7-(8-ethynyl-7-fluoronaphthalen-1-yl)-8-fluoro-2-(((2R,7aS)-2-fluorotetrahydro-1H-pyrrolizin-7a(5H)-yl)methoxy)pyrido[4,3-d]pyrimidin-4-yl)piperazin-2-yl)acetonitrile], the IC50 in series [1] and in series [2] was < 10 nM each time. Moreover, the solubility kinetic at 2 h in series [3] was 1.49 µg/mL (≈ 1.97 µM). In addition, the logD in series [4] is 3.32.
For the compound `Cc1cc(/C=C/C(=O)N2CCN(c3nc(OC[C@@]45CCCN4C[C@H](F)C5)nc4c(F)c(-c5cccc(Cl)c5C5CC5)ncc34)C[C@@H]2CC#N)nc(C)n1` [Compound 102, 2-((S)-4-(7-(3-chloro-2-cyclopropylphenyl)-8-fluoro-2-(((2R,7aS)-2-fluorotetrahydro-1H-pyrrolizin-7a(5H)-yl)methoxy)pyrido[4,3-d]pyrimidin-4-yl)-1-((E)-3-(2,6-dimethylpyrimidin-4-yl)acryloyl)piperazin-2-yl)acetonitrile], the IC50 in series [1] and in series [2] was < 10 nM each time. Besides, the solubility kinetic at 2 h in series [3] was 12 µg/mL (≈ 16.2 µM). For the same compound, in series [4], the logD was 3.98.
For `C#Cc1c(F)ccc2cccc(-c3ncc4c(N5CCN(C(=O)/C=C/c6ccnc(C)n6)[C@@H](CC#N)C5)nc(OC[C@@]56CCCN5C[C@H](F)C6)nc4c3F)c12` [Compound 103, 2-((S)-4-(7-(8-ethynyl-7-fluoronaphthalen-1-yl)-8-fluoro-2-(((2R,7aS)-2-fluorotetrahydro-1H-pyrrolizin-7a(5H)-yl)methoxy)pyrido[4,3-d]pyrimidin-4-yl)-1-((E)-3-(2-methylpyrimidin-4-yl)acryloyl)piperazin-2-yl)acetonitrile], the concentration for half-maximal inhibition (IC50) in series [1] and in series [2] was < 10 nM in each case. In series [3], the solubility kinetic at 2 h is 10 µg/mL (≈ 13.5 µM). Also, the logD in series [4] amounted to 3.29.
